Experimental data: the NIST ThermoML archive (doi:10.1021/je034223r)

Assays:
[1] = refractive index (Na D-line) (dimensionless); conditions: 298.15 K; 101.33 kPa; Liquid; Standard Abbe refractometry
[2] = 298.15 K; 101.33 kPa; Liquid; Vibrating tube method
[3] = molar heat capacity at constant pressure; conditions: 298.15 K; 101.33 kPa; Liquid; Flow calorimetry
[4] = excess molar enthalpy (molar enthalpy of mixing); xn = mol fraction of the nth substance listed; conditions: 298.15 K, 101.3 kPa, Liquid, Flow calorimetry
[5] = heat capacity at constant pressure per volume; xn = mol fraction of the nth substance listed; conditions: 298.15 K, 101.3 kPa, Liquid, Flow calorimetry
[6] = xn = mol fraction of the nth substance listed; conditions: 298.15 K, 101.3 kPa, Liquid, vibrating tube
[7] = refractive index (Na D-line) (dimensionless); xn = mol fraction of the nth substance listed; conditions: 298.15 K, 101.3 kPa, Liquid, refractometer

C1COCO1 [1,3-dioxolane]
Conditions | mass density [kg/m3] | molar heat capacity at constant pressure [J/K/mol] | refractive index
[1] | – | – | 1.39797
[2] | 1058.67 | – | –
[3] | – | 121.66 | –

C1COCO1 [1,3-dioxolane] + O=C1CCCCC1
[4]
Conditions | excess molar enthalpy [kJ/mol]
x1 = 0.1 | 0.0639
x1 = 0.15 | 0.0897
x1 = 0.2 | 0.111
x1 = 0.25 | 0.129
x1 = 0.3 | 0.146
x1 = 0.35 | 0.16
x1 = 0.4 | 0.167
x1 = 0.45 | 0.171
x1 = 0.5 | 0.171
x1 = 0.55 | 0.169
x1 = 0.6 | 0.163
x1 = 0.65 | 0.154
x1 = 0.7 | 0.143
x1 = 0.75 | 0.128
x1 = 0.8 | 0.109
x1 = 0.85 | 0.0871
x1 = 0.9 | 0.0619

CCCCCC(C)=O [2-heptanone] + C1COCO1
Conditions | excess molar enthalpy [kJ/mol] | heat capacity [J/K/m3] | mass density [kg/m3] | refractive index
[4], x2 = 0.1 | 0.117 | – | – | –
[4], x2 = 0.15 | 0.171 | – | – | –
[4], x2 = 0.2 | 0.225 | – | – | –
[4], x2 = 0.25 | 0.275 | – | – | –
[4], x2 = 0.3 | 0.32 | – | – | –
[4], x2 = 0.35 | 0.359 | – | – | –
[4], x2 = 0.4 | 0.391 | – | – | –
[4], x2 = 0.45 | 0.416 | – | – | –
[4], x2 = 0.5 | 0.4315 | – | – | –
[4], x2 = 0.55 | 0.439 | – | – | –
[4], x2 = 0.6 | 0.435 | – | – | –
[4], x2 = 0.65 | 0.426 | – | – | –
[4], x2 = 0.7 | 0.407 | – | – | –
[4], x2 = 0.75 | 0.374 | – | – | –
[4], x2 = 0.8 | 0.332 | – | – | –
[4], x2 = 0.85 | 0.276 | – | – | –
[4], x2 = 0.9 | 0.203 | – | – | –
[5], x2 = 0.0872 | – | 1721500 | – | –
[5], x2 = 0.1656 | – | 1720700 | – | –
[5], x2 = 0.2372 | – | 1720000 | – | –
[5], x2 = 0.3167 | – | 1719700 | – | –
[5], x2 = 0.3868 | – | 1719900 | – | –
[5], x2 = 0.4649 | – | 1720200 | – | –
[5], x2 = 0.541 | – | 1721000 | – | –
[5], x2 = 0.6252 | – | 1722500 | – | –
[5], x2 = 0.6995 | – | 1724400 | – | –
[5], x2 = 0.7807 | – | 1726700 | – | –
[5], x2 = 0.8584 | – | 1729700 | – | –
[6], x2 = 0.1058 | – | – | 824.42 | –
[6], x2 = 0.1274 | – | – | 827.37 | –
[6], x2 = 0.244 | – | – | 844.52 | –
[6], x2 = 0.3122 | – | – | 855.72 | –
[6], x2 = 0.3693 | – | – | 865.84 | –
[6], x2 = 0.3985 | – | – | 871.31 | –
[6], x2 = 0.4258 | – | – | 876.6 | –
[6], x2 = 0.4304 | – | – | 877.56 | –
[6], x2 = 0.4313 | – | – | 877.69 | –
[6], x2 = 0.4768 | – | – | 887.06 | –
[6], x2 = 0.5071 | – | – | 893.63 | –
[6], x2 = 0.5125 | – | – | 894.83 | –
[6], x2 = 0.5141 | – | – | 895.15 | –
[6], x2 = 0.536 | – | – | 900.1 | –
[6], x2 = 0.5433 | – | – | 901.8 | –
[6], x2 = 0.5928 | – | – | 913.69 | –
[6], x2 = 0.6302 | – | – | 923.33 | –
[6], x2 = 0.6308 | – | – | 923.51 | –
[6], x2 = 0.667 | – | – | 933.32 | –
[6], x2 = 0.7125 | – | – | 946.48 | –
[6], x2 = 0.785 | – | – | 969.65 | –
[6], x2 = 0.8627 | – | – | 997.8 | –
[6], x2 = 0.9533 | – | – | 1036.16 | –
[7], x2 = 0.0796 | – | – | – | 1.4064
[7], x2 = 0.1592 | – | – | – | 1.40592
[7], x2 = 0.2381 | – | – | – | 1.40542
[7], x2 = 0.315 | – | – | – | 1.40489
[7], x2 = 0.3582 | – | – | – | 1.40459
[7], x2 = 0.3981 | – | – | – | 1.4043
[7], x2 = 0.437 | – | – | – | 1.404
[7], x2 = 0.4767 | – | – | – | 1.4037
[7], x2 = 0.5147 | – | – | – | 1.4034
[7], x2 = 0.5562 | – | – | – | 1.40305
[7], x2 = 0.5892 | – | – | – | 1.40276
[7], x2 = 0.6363 | – | – | – | 1.40234
[7], x2 = 0.6694 | – | – | – | 1.40202
[7], x2 = 0.7034 | – | – | – | 1.40169
[7], x2 = 0.7886 | – | – | – | 1.40078
[7], x2 = 0.8717 | – | – | – | 1.39979
[7], x2 = 0.9502 | – | – | – | 1.39873
